Assays:
Test in all cases: relative viability (nuclei count vs DMSO), 5 days (fraction); higher = more cells survive
Linsitinib + Alpelisib = compound: C[C@]1(O)C[C@@H](c2nc(-c3ccc4ccc(-c5ccccc5)nc4c3)c3c(N)nccn32)C1 [Linsitinib] + Cc1nc(NC(=O)N2CCC[C@H]2C(N)=O)sc1-c1ccnc(C(C)(C)C(F)(F)F)c1 [Alpelisib] (partner 2 µM)
Summary of the method: (§1)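 Relative viability equals treated-well nuclei counts divided by vehicle-well nuclei counts. Counts came from 4× images of lung cancer cell lines grown in 1536-well plates for 5 days after pin-tool dosing on the day after seeding. Dosing used one drug alone or a fixed anchor-drug dose plus five library-drug doses (not always all listed) in √10 steps, and values are medians of duplicate plates.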

Ispinesib + Pictilisib = compound: Cc1ccc(C(=O)N(CCCN)[C@@H](c2nc3cc(Cl)ccc3c(=O)n2Cc2ccccc2)C(C)C)cc1 [Ispinesib] + CS(=O)(=O)N1CCN(Cc2cc3nc(-c4cccc5[nH]ncc45)nc(N4CCOCC4)c3s2)CC1 [Pictilisib] (partner 1 µM)
Summary of the method: as §1

Linsitinib + Phenformin = compound: C[C@]1(O)C[C@@H](c2nc(-c3ccc4ccc(-c5ccccc5)nc4c3)c3c(N)nccn32)C1 [Linsitinib] + N=C(N)NC(=N)NCCc1ccccc1 [Phenformin] (partner 250 µM)
Summary of the method: as §1

Ispinesib + OSI-027 = compound: Cc1ccc(C(=O)N(CCCN)[C@@H](c2nc3cc(Cl)ccc3c(=O)n2Cc2ccccc2)C(C)C)cc1 [Ispinesib] + COc1cccc2cc(-c3nc([C@H]4CC[C@H](C(=O)O)CC4)n4ncnc(N)c34)[nH]c12 [OSI-027] (partner 0.5 µM)
Summary of the method: as §1

Cell Line	relative viability (Linsitinib + Alpelisib; first compound 0.01 µM)	relative viability (Linsitinib + Alpelisib; first compound 0.03162 µM)	relative viability (Linsitinib + Alpelisib; first compound 0.1 µM)	relative viability (Linsitinib + Alpelisib; first compound 0.3162 µM)	relative viability (Linsitinib + Alpelisib; first compound 1 µM)	relative viability (Ispinesib + Pictilisib; first compound 0.001 µM)	relative viability (Ispinesib + Pictilisib; first compound 0.003162 µM)	relative viability (Ispinesib + Pictilisib; first compound 0.01 µM)	relative viability (Ispinesib + Pictilisib; first compound 0.03162 µM)	relative viability (Ispinesib + Pictilisib; first compound 0.1 µM)	relative viability (Linsitinib + Phenformin; first compound 0.01 µM)	relative viability (Linsitinib + Phenformin; first compound 0.03162 µM)	relative viability (Linsitinib + Phenformin; first compound 0.1 µM)	relative viability (Linsitinib + Phenformin; first compound 1 µM)	relative viability (Ispinesib + OSI-027; first compound 0.001 µM)	relative viability (Ispinesib + OSI-027; first compound 0.003162 µM)	relative viability (Ispinesib + OSI-027; first compound 0.01 µM)	relative viability (Ispinesib + OSI-027; first compound 0.03162 µM)	relative viability (Ispinesib + OSI-027; first compound 0.1 µM)	relative viability (Linsitinib + Phenformin; first compound 0.3162 µM)
BEN	1.09	1.02	0.935	0.662	1.04	0.581	0.675	0.542	0.421	0.222	0.28	0.24	0.245	0.292	0.312	0.306	0.341	0.38	0.202	
NCI-H2009	1.17	1.17	1.2	1.03	1.13	0.782	0.804	0.58	0.0875	0.173	0.479	0.47	0.434	0.367	0.702	0.695	0.618	0.212	0.211	
LC-2-ad	0.84	0.73	0.822	0.633	0.733	0.507	0.509	0.438	0.0946	0.133	0.606	0.572	0.558	0.353	0.808	0.855	0.973	0.352	0.264	0.332
NCI-H1437	0.977	0.955	0.986	0.901	0.903	0.46	0.48	0.477	0.393	0.207	0.281	0.321	0.303	0.288	1.1	0.881	1.16	0.938	0.263	0.272
NCI-H3122	0.85	0.763	0.768	0.699	0.758	0.601	0.838	0.635	0.569	0.162	0.378	0.352	0.309	0.335	1.07	1.38	1.06	0.218	0.14	
NCI-H1563	0.909	0.924	0.85	0.861	0.928	0.68	0.723	0.533	0.54	0.528	0.68	0.647	0.658	0.621	0.841	0.768	0.834	0.843	0.536	0.834
NCI-H727	0.489	0.394	0.564	0.378	0.278		0.461	0.313	0.232	0.239	0.562	0.489	0.483	0.422	0.856	0.707	0.604	0.404	0.361	0.503

Reference: the supplement of paper PMC10307832
